From PMC12154458, “High-Throughput Screens of Repurposing Hub and DOS Chemical Libraries Reveal Compounds with Novel and Potent Inhibitory Activity Against the Essential Non-Neuronal Acetylcholinesterase of Schistosoma mansoni (SmTAChE)” (International Journal of Molecular Sciences, 2025)
Counter-ions that a name gives are not always drawn.

Experiments:
[1] = target: recombinant human acetylcholinesterase, rHsAChE (Homo sapiens, UniProt P22303); experiment: biochemical; details: for IC50: read-out: qAC50 (IC50), rHsAChE; for inhibition of rHsAChE, result in words: dose–response, up to 40 µM
Chain of recombinant human acetylcholinesterase, rHsAChE (P22303 32-614): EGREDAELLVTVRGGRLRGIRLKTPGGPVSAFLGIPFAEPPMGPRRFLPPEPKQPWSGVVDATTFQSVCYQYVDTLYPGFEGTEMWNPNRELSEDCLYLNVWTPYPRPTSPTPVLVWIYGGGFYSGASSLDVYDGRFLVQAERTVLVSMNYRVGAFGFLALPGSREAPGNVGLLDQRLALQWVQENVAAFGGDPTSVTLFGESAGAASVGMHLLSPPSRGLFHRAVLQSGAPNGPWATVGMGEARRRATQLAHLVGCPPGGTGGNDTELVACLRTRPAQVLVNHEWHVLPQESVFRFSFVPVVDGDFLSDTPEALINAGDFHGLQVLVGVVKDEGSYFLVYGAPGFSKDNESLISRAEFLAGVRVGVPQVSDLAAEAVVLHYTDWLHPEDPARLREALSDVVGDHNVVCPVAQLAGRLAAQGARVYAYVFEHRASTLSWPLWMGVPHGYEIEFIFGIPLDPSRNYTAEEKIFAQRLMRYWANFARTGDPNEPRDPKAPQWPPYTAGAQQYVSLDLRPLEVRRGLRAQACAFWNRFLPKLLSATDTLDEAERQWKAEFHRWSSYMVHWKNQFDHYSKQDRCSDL

rSmTAChE [2] = target: T1, rSmTAChE (Schistosoma mansoni, UniProt A0A3Q0KMM5); experiment: biochemical
T1 sequence (A0A3Q0KMM5 27-661 limits assumed): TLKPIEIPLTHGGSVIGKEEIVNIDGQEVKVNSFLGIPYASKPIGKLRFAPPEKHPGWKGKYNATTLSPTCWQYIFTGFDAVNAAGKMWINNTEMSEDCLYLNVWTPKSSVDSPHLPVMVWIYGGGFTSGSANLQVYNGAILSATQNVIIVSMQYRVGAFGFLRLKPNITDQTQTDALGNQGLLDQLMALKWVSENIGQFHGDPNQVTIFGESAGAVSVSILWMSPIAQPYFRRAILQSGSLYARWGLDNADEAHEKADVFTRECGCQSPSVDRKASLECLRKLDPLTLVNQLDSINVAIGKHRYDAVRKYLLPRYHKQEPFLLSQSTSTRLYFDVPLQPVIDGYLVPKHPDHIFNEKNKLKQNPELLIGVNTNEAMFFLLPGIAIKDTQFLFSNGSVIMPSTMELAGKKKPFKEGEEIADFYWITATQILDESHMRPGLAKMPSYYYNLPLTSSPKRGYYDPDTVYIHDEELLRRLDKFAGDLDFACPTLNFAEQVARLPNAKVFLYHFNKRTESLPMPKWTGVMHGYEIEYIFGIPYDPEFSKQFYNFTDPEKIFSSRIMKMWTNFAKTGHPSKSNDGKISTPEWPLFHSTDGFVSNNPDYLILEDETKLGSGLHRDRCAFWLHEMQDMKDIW

rSmTAChE [3] = target: T1, rSmTAChE; format: biochemical; details: for IC50: read-out: qAC50 (IC50), rSmTAChE
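For Inhibition (%) (Average) in this document: mostly 20 µM final but a few compounds at 5 or 10 µM.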
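For Inhibition (%) Replicate A in this document: mostly 20 µM final but a few compounds at 5 or 10 µM.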
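For Inhibition (%) Replicate B in this document: mostly 20 µM final but a few compounds at 5 or 10 µM.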

SMILES | Data Mode (curve class), rHsAChE [1] | Inhibition (%) (Average) (rSmTAChE [2]) | Inhibition (%) Replicate A (rSmTAChE [2]) [%] | Inhibition (%) Replicate B (rSmTAChE [2]) [%] | Data Mode (curve class), rSmTAChE (rSmTAChE [3]) | further results
CCC(CC)C(c1ccc(Nc2nc3ccccc3s2)cc1)n1cncn1 (stereo not shown) [BRD-A95755460-001-01-3] | inactive | 71.38 | 75.72 | 67.03 | decreasing (weakly active) | IC50 (rSmTAChE [3]): > 38 µM
N#C[C@H]1[C@H](c2ccc(C#CC3CC3)cc2)[C@H](CO)N1C(=O)Cc1ccccn1 [BRD-K00124439-001-01-2] | – | 63.26 | 63.67 | 62.84 | – | rHsAChE Data Mode [1]: inactive; rSmTAChE Data Mode (rSmTAChE [3]): decreasing (weakly active)
O=C(C[C@H]1C=C[C@H](NC(=O)c2ccncc2)[C@@H](CO)O1)Nc1ccc(-c2ccccc2)cc1 [BRD-K04695993-001-01-5] | – | 82.34 | 77.66 | 87.01 | – | rHsAChE Data Mode [1]: inactive; rSmTAChE Data Mode (rSmTAChE [3]): inactive
CC(C)Oc1ccc(-c2cnc3c(-c4ccnc5ccccc45)cnn3c2)cc1 [BRD-K39381259-001-01-0] | decreasing (weakly active) | – | – | – | inactive | IC50 [1]: > 13.5 µM
CC(C)Oc1ccc(-c2cnc3c(-c4ccnc5ccccc45)cnn3c2)cc1 [BRD-K39381259-001-02-8] | – | 67.85 | 64.38 | 71.32 | – | –
C[C@H](Oc1cc(-c2cnn(C3CCNCC3)c2)cnc1N)c1c(Cl)ccc(F)c1Cl [BRD-K40308497-001-01-2] | – | 86.27 | 85.50 | 87.03 | – | –
C[C@H](Oc1cc(-c2cnn(C3CCNCC3)c2)cnc1N)c1c(Cl)ccc(F)c1Cl [BRD-K40308497-001-02-0] | decreasing | – | – | – | decreasing | IC50 [1]: 21.2 µM; IC50 (rSmTAChE [3]): 26.8 µM
CC(C)(O)c1ccccc1CC[C@@H](SCC1(CC(=O)O)CC1)c1cccc(/C=C/c2ccc3ccc(Cl)cc3n2)c1 [BRD-K69470111-001-01-2] | increasing (weakly active) | – | – | – | decreasing (weakly active) | IC50 [1]: > 38 µM; IC50 (rSmTAChE [3]): > 38 µM
CC(C)(O)c1ccccc1CC[C@@H](SCC1(CC(=O)O)CC1)c1cccc(/C=C/c2ccc3ccc(Cl)cc3n2)c1 [BRD-K69470111-236-09-7] | – | 81.70 | 81.35 | 82.06 | – | –
CC1(C)CCC(C)(C)c2cc(C#Cc3ccc(C(=O)O)cc3)ccc21 [BRD-K81004638-001-01-7] | decreasing | – | – | – | decreasing | IC50 [1]: 14.5 µM; IC50 (rSmTAChE [3]): 19.8 µM
CC1(C)CCC(C)(C)c2cc(C#Cc3ccc(C(=O)O)cc3)ccc21 [BRD-K81004638-001-02-5] | – | 66.58 | 64.60 | 68.56 | – | –
CCCCCCCCc1ccc(CCC(N)(CO)CO)cc1 [BRD-K88025533-003-03-3] | – | 70.74 | 73.25 | 68.23 | – | –
CCCCCCCCc1ccc(CCC(N)(CO)CO)cc1 [BRD-K88025533-003-04-1] | inactive | – | – | – | inactive | –
C/C=C1\[C@H]2C=C(C)C[C@]1(N)c1ccc(=O)[nH]c1C2 [Huperzine A, reference compound] | – | – | – | – | decreasing | inhibition at 20 µM (rSmTAChE [2]; read-out: rSmTAChE HTS Inhibition (Ave, %)): 64.1%
Nc1ccc(O)c(C(=O)O)c1 [Mesalazine, reference compound] | – | – | – | – | decreasing | IC50 (µM) rHsAChE [1]: Inactive; inhibition of rHsAChE, result in words [1]: no detectable inhibitory effect; inhibition of rHsAChE, result in words ([1]; listed as #19): no inhibition detected
CNC(=O)Oc1ccc2c(c1)[C@]1(C)CCN(C)[C@@H]1N2C [Physostigmine salicylate, reference compound] | decreasing | – | – | – | decreasing | –
CNC(=O)Oc1ccc2c(c1)[C@]1(C)CCN(C)[C@@H]1N2C [Physostigmine sulfate, reference compound] | decreasing | – | – | – | decreasing | –
